Counter-ions that a name gives are not always drawn.

The target of one data set is T1, NLRP3 (Homo sapiens, UniProt Q96P20).
T1 construct: This experiment utilized the human-derived monocyte cell line THP1; endogenous in cells; host or cells: THP-1 (human monocyte line, PMA-differentiated into macrophages)
Nature of the data set: Detecting IC50 of NLRP3 inhibitor by using THP-1 cells (IL-1β secretion, CBA). The format is cell-based. As to conditions: PMA/LPS/ATP, IL-1β in supernatant. From the text: 1. Experimental principle: This experiment utilized the human-derived monocyte cell line THP1 to investigate the inhibitory activity (IC50) of NLRP3 inhibitor on cellular IL-1β secretion. PMA (12-O-tetradecanoylphorbol-13-acetate) was used to differentiate the monocyte cell line THP1 into mature macrophages, which were then stimulated using LPS (lipopolysaccharide), an agonist of the Toll-like receptor TLR4, to activate the transcriptional activity of the inflammasome NLRP3 and the expression of pro-IL-1β, a precursor of IL-1β. At this time, the inhibitor of NLRP3 was added, and then ATP (adenosine triphosphate) was added to further mature and activate NLRP3, and activate downstream caspase-1. Activated caspase-1 may enzymatically process pro-IL-1β into mature IL-1β that can be secreted.
(1) The density of THP1 cells was adjusted to 5×10^5 cells/mL, then PMA was added, and the final concentration was adjusted to 100 ng/mL. The cells were inoculated 200 μL/well into a 96-well flat-bottom plate, stimulated overnight (<16 hours if possible) at 37° C. and 5% CO2.
(2) The supernatant was discarded the next day, and then the cells were carefully washed twice with Dulbecco's phosphate-buffered saline (200 μL/time).
(3) The cells were stimulated with LPS at a final concentration of 100 ng/mL, added to a 96-well plate (200 μL/well), and cultured at 37° C. and 5% CO2 for 3 hours.
The cells were incubated for 1 hour in a 37° C., 5% CO2 incubator.
(5) ATP was added to each well with a final concentration of 5 mM, and cultured overnight (>18 hours) at 37° C. and 5% CO2.
(6) On the third day, 5 μL of the supernatant was taken, diluted 10-fold, and the content of IL-1β in the supernatant was detected by cytometric bead array (CBA).

Data set [1] is described as follows: In vivo pharmacokinetic evaluation in CD-1 mice. Particulars: male, mouse, plasma, dose IV/PO 2/10 mg/kg. As for the experimental part: Experimental Example 2: In Vivo Pharmacokinetic Evaluation of Compounds in CD-1 Mice
Experimental purpose: To test the in vivo pharmacokinetics of the compounds in CD-1 mice
CD-1 mice (male, 7 to 9 weeks old)
The rodent pharmacokinetic characteristics after intravenous injection and oral administration of the compounds were tested using a standard protocol. The candidate compound was prepared as a clear solution during the experiment and given to mice for single intravenous injection and oral administration. The vehicle for intravenous injection and oral administration was a mixed vehicle composed of 5% dimethyl sulfoxide and 95% 5% solutol. Four male CD-1 mice were used in this project. Two mice were administered intravenously (IV), and plasma samples were collected at 0 hours (before administration) and 0.0833, 0.25, 0.5, 1, 2, 4, 8, and 24 hours after administration. The other two mice were administered orally by gavage (PO), and plasma samples were collected at 0 hours (before administration) and 0.25, 0.5, 1, 2, 4, 8, and 24 hours after administration. The plasma concentration was quantitatively analyzed by LC-MS/MS analysis method, and the pharmacokinetic parameters were calculated, such as peak concentration (Cmax), clearance rate (CL), half-life (T1/2), […] (Vdss), area under drug-time curve (AUC0-last), bioavailability (F).

A short description of data set [2]: In vivo pharmacokinetic evaluation in SD rats. As to conditions: male, rat, plasma, dose IV/PO 1/2 mg/kg. Here is the method: Experimental Example 3: In Vivo Pharmacokinetic Evaluation of Compounds in SD Rats
Experimental Purpose: To Test the In Vivo Pharmacokinetics of the Compounds in SD Rats
The rodent pharmacokinetic characteristics after intravenous injection and oral administration of the compounds were tested using a standard protocol. The candidate compound was prepared as a clear solution during the experiment and given to SD rats for single intravenous injection and oral administration. The vehicle for intravenous injection and oral administration was a mixed vehicle composed of 5% dimethyl sulfoxide and 95% 5% solutol. Four male SD rats were used in this project. Two SD rats were administered intravenously, and plasma samples were collected at 0.083, 0.25, 0.5, 1, 2, 4, 8, and 24 hours after administration. The other two SD rats were administered orally by gavage, and plasma samples were collected at 0.25, 0.5, 1, 2, 4, 8, and 24 hours after administration. The plasma concentration was quantitatively analyzed by LC-MS/MS analysis method, and the pharmacokinetic parameters were calculated, such as peak concentration (Cmaz), clearance rate (CL), half-life (T1/2), […] (Vdss), area under drug-time curve (AUC0-last), bioavailability (F).

Data set [3] concerns the target T2, hERG potassium ion channel (Homo sapiens, UniProt Q12809).
T2 construct: expressed in transfected cells; host or cells: CHO (CHO-hERG cell line)
Description: Inhibition test on hERG potassium ion channel (automated patch clamp, CHO-hERG cells). It counts as cell-based. Particulars: Qpatch, highest test concentration 40.00 μM. Here is the method:
Experimental Example 4: Inhibition Test of Compounds on hERG Potassium Ion Channel
Experimental purpose: To detect the effect of the compounds to be tested on the hERG potassium channel by an automated patch clamp method.
1.1 CHO-hERG cells were cultured in a 175 cm^2 culture flask. When the cell density reached 60 to 80%, the culture medium was removed, and the cells were washed once with 7 mL of PBS (phosphate buffered saline), and then digested with 3 mL of digestion solution.
1.2 After the digestion was completed, 7 mL of culture medium was added to neutralize, then the mixture was centrifuged, and the supernatant was aspirated, and then 5 mL of culture medium was added to re-suspend, ensuring 2 to 5×10^6/mL of cell density.
The process of single cell high impedance sealing and whole cell mode formation were all automatically completed by Qpatch instrument, after obtaining the whole cell recording mode, the cells were clamped at −80 mV, before giving a 5-second +40 mV depolarization stimulus, a 50 millisecond −50 mV prevoltage was given first, and then repolarized to −50 mV for 5 seconds, then returned to −80 mV This voltage stimulation was applied every 15 seconds and after recording for 2 minutes, extracellular fluid was recordings for 5 minutes, and then the administration process was started. The compound concentration was given from the lowest test concentration, each test concentration was given for 2.5 minutes, and 3 μM of Cisapride as the positive control compound was given after all concentrations were continuously given. At least 3 cells (n≥3) were tested at each concentration.
4.1 The mother solution of the compound was diluted with DMSO, and 10 μL of mother solution of the compound was added to 20 μL of DMSO solution, and was 3-fold diluted continuously to 6 DMSO concentrations.
4.2 4 μL of compounds with 6 DMSO concentrations were added to 396 μL of extracellular fluid, 100-fold diluted to 6 intermediate concentrations, and then 80 μL of the compounds with 6 intermediate concentrations were added to 320 μL of extracellular fluid, 5-fold diluted to the final concentration to be tested.
4.3 The highest test concentration was 40.00 μM, in a total of 6 concentrations of 40.00, 13.33, 4.44, 1.48, 0.49, and 0.16 μM respectively.
4.4 The content of DMSO in the final test concentration was not more than 0.2%, and this concentration of DMSO had no effect on hERG potassium channel.
4.5 The whole dilution process of compound preparation was completed by Bravo instrument.
The experimental data were analyzed by GraphPad Prism 5.0 software.
In general terms: hERG is a cardiac potassium channel; its block is linked to QT prolongation.

Where [4] appears, read: PO, read-out: Area under drug-time curve AUC0-last PO.
Where [5] appears, read: read-out: Peak concentration Cmax.

T2 sequence (Q12809 whole entry): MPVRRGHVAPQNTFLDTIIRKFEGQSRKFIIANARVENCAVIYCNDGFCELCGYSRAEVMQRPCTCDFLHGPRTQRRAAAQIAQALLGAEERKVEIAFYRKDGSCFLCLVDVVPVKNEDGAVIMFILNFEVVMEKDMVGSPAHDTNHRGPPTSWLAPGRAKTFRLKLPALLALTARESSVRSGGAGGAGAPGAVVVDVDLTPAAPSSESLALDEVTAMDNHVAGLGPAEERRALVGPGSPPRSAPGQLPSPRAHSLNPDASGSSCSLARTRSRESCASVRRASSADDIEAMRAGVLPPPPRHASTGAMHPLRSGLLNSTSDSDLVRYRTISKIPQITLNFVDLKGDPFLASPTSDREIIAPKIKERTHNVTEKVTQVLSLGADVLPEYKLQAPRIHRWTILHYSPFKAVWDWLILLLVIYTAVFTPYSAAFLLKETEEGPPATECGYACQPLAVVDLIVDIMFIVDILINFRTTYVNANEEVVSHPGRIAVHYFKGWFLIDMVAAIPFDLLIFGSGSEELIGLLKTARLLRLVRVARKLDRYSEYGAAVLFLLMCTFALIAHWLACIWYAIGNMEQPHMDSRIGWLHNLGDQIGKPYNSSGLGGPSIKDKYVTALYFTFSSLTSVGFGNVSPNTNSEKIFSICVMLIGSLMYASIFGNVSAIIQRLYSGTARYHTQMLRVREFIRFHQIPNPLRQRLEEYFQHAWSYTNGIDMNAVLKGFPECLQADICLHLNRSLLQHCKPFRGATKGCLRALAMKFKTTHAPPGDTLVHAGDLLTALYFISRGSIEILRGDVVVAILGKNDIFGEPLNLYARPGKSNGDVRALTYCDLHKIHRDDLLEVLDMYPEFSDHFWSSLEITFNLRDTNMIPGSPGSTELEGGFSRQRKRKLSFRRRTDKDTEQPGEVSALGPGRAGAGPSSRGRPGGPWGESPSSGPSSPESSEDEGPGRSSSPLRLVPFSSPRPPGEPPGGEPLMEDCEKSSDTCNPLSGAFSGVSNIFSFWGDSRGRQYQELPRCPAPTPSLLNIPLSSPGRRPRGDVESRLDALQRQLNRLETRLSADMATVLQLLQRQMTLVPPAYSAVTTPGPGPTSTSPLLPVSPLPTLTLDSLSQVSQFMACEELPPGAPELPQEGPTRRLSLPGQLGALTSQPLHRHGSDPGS
T1 sequence (Q96P20 whole entry): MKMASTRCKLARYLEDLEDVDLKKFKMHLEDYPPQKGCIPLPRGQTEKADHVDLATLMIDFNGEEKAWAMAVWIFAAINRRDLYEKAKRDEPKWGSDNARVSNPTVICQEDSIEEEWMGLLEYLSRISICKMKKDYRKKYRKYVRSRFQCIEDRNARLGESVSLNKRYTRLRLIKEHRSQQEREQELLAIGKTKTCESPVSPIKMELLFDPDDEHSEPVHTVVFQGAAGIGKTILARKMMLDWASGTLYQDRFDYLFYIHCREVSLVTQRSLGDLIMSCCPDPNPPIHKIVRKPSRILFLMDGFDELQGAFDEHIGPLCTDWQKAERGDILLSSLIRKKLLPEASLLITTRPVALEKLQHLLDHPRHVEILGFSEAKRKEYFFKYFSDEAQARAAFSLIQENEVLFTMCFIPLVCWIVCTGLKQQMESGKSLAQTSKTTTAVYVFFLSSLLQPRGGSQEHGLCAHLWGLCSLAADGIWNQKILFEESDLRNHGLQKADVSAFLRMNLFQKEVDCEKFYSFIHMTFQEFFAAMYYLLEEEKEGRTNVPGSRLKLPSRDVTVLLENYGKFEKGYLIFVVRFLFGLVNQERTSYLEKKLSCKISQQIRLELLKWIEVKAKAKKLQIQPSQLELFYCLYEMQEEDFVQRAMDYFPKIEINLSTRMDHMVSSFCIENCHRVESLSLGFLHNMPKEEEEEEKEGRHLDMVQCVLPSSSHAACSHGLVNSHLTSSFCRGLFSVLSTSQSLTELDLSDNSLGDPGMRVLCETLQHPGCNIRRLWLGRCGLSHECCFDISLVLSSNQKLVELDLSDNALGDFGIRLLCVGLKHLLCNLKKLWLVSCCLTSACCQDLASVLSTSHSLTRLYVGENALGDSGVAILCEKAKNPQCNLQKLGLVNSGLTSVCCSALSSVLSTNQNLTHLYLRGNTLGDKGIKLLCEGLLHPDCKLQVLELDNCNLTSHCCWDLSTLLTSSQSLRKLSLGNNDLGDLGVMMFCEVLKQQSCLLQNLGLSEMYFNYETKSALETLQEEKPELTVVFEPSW

A word on the IC50: it is the midpoint of a concentration-inhibition curve. Consider `Cc1cc(N[C@@H]2CCCC[C@H]2O)nnc1-c1ccc2sccc2c1O` [Hydrochloride of compound 60], for which the IC50 against NLRP3 is 0.436 nM; in data set [3], over 40000 nM. Further, the half-life is 1.45 h in data set [1] (2 mg/kg, IV, read-out: Half-life T1/2 (IV) (converted)) and 1.08 h in data set [2] (1 mg/kg, IV, read-out: Half-life T1/2 (IV) (converted)). For the same compound, the clearance in data set [1] (2 mg/kg, read-out: Clearance rate CL) turned out to be 12.8 mL/min/kg; in data set [2] (1 mg/kg, read-out: Clearance rate CL) it was 10 mL/min/kg. Further, the Vd came out at 1.08 L/kg in data set [1] (2 mg/kg, read-out: Tissue distribution Vdss) and 0.402 L/kg in data set [2] (1 mg/kg, read-out: Tissue distribution Vdss). In addition, the AUC(0-t) stood at 48.1 µM·h in data set [1] (setting [4]) and 6.66 µM·h in data set [2] (setting [4]). For the same compound, the bioavailability in data set [1] (read-out: Bioavailability F) is 147%; in data set [2] (read-out: Bioavailability F) it was 71.1%. Further, the Cmax is 22.2 µM in data set [1] (setting [5]) and 2.61 µM in data set [2] (setting [5]).

The values above are taken from US20240166610A1, “SUBSTITUTED PYRIDAZINE PHENOL DERIVATIVES” (MEDSHINE DISCOVERY INC., priority 2021, published 2024).
